Here are results for 18 compounds from EP0294258A1, “Hydrazine derivatives, process for obtaining them and pharmaceutical composition containing them” (priority 1987, dated 1988).

Structures are written as SMILES. Like-named read-outs stand apart in the source and are kept apart here.

The nature of one series: Acute toxicity (DL 50). The following applies: in vivo.
For series [1], the system named is rat spontanément hypertendu (S.H.R.). Kind of series: Antihypertensive activity in the spontaneously hypertensive rat (SHR). It is filed as in vivo. The conditions noted are these: for minimal effective dose: Rattus norvegicus, read-out: Activité anti-hypertensive SHR Dose minimale active.
Series [2] relates to souris. Kind of series: Spontaneous motility. Format: in vivo. The following applies: I.P.
For series [3], the system named is souris. As to the kind of experiment: Apomorphine test. The conditions noted are these: in vivo.
Series [4] relates to souris. As to the kind of experiment: Exploratory activity. Format: in vivo. The following applies: Mus musculus, ip; I.P.; read-out: diminue l'activité d'exploration D.E.50.
Series [5] relates to souris. Kind of series: Hypothermia. It is filed as in vivo. The conditions noted are these: I.P.
Another series concerns rat normotendu. As to the kind of experiment: Cardiovascular effects in the normotensive rat. The following applies: 50 mg.kg^-1 I.P. It is filed as in vivo.
Series [6] relates to souris. Kind of series: Potentiation of barbiturate sleep. Format: in vivo. The following applies: I.P.
The subject of series [7] is souris. As to the kind of experiment: Antagonism of amphetamine hypermotility. Format: in vivo. The following applies: I.P.
The test system of a further series is rat. As to the kind of experiment: Anti-inflammatory activity, carrageenan test. The conditions noted are these: I.P. It is filed as in vivo.
Series [8] deals with souris. Kind of series: Yohimbine test. The following applies: in vivo.
For series [9], the system named is souris. Kind of series: Oxotremorine test. Format: in vivo. The following applies: à forte dose.
Series [10] has as its system souris. As to the kind of experiment: Analgesic activity, hot plate. The conditions noted are these: I.P. Format: in vivo.
Series [11] has as its system souris. As to the kind of experiment: Motor incoordination. The conditions noted are these: I.P. It is filed as in vivo.
The test system of series [12] is souris. Kind of series: Analgesic activity, P.B.Q. test. The conditions noted are these: in vivo.

For `CC(C)(O)C(=O)NN=Cc1ccccc1Cl` [1a, reference compound], the LD50 in the series “Acute toxicity (DL 50)” (ip, I.P.) worked out at 490 mg/kg. Moreover, the “Activité anti-hypertensive SHR Dose minimale active” value in [1] (route not given) is listed as “inactif”.

In turn, `CC(=NNC(=O)C(C)(C)O)c1ccc(Cl)cc1` [1b, reference compound] registered an LD50 in the series “Acute toxicity (DL 50)” (ip, I.P.) of 150 mg/kg. In addition, the “Activité anti-hypertensive SHR Dose minimale active” value in series [1] (route not given) is listed as “inactif”.

`CC(C)(O)C(=O)NN=Cc1ccc(Cl)cc1` [1c, reference compound]: in “Acute toxicity (DL 50)” (ip, I.P.), the LD50 was determined as 660 mg/kg. For the same compound, the “Activité anti-hypertensive SHR Dose minimale active” value in series [1] (route not given) was “inactif”.

In the case of `CC(C)(O)CC(=O)NN=Cc1ccccc1Cl` [1d, reference compound], in “Acute toxicity (DL 50)” (ip, I.P.), the LD50 came to 433 mg/kg. Also, the “Activité anti-hypertensive SHR Dose minimale active” value in series [1] (route not given) is “inactif”.

`CC(=NNC(=O)CC(C)(C)O)c1ccccc1Cl` [1e, reference compound] had an LD50 in “Acute toxicity (DL 50)” (ip, I.P.) of 227 mg/kg. Also, in series [1] (route not given), the “Activité anti-hypertensive SHR Dose minimale active” value is “inactif”.

Turning to `CC(O)C(=O)NN=Cc1ccccc1Cl` (stereo not shown) [3a, reference compound], in “Acute toxicity (DL 50)” (route not given), the LD50 is 300 mg/kg. For the same compound, the “Activité anti-hypertensive SHR Dose minimale active” value in series [1] (route not given) is given as “inactif”.

In the case of `COCC(=O)NN=Cc1ccccc1Cl` [6a, reference compound], the LD50 in the series “Acute toxicity (DL 50)” (ip, I.P.) amounted to 477 mg/kg. In [1] (route not given), the “Activité anti-hypertensive SHR Dose minimale active” value was “inactif”.

`NCC(=O)NN=Cc1ccccc1Cl` [7a, reference compound] showed an LD50 in the series “Acute toxicity (DL 50)” (ip, I.P.) of 360 mg/kg. Besides, the “Activité anti-hypertensive SHR Dose minimale active” value in series [1] (route not given) is recorded as “inactif”.

In the series “Acute toxicity (DL 50)” (ip, I.P.), `NC(=O)C(=O)NN=Cc1ccccc1Cl` [9a, reference compound] registered an LD50 above 400 mg/kg. Besides, the “Activité anti-hypertensive SHR Dose minimale active” value in series [1] (route not given) is listed as “inactif”.

Turning to `CC(=NNC(=O)C(C)(C)O)c1ccccc1Cl` [Exemple 1, (hydroxy-2 isobutyroyl)-1 (orthochlorophényl-1 éthylidène-1)-2 hydrazine], the “diminue la motilité spontanée D.E.50” value in the series with souris [2] is 10 mg/kg. In “Acute toxicity (DL 50)” (ip, I.P.), this compound gave an LD50 of 482 mg/kg. Besides, the “test à l'apomorphine” value with souris [3] was “inactif”. In the series with souris [4], the ED50 worked out at 27 mg/kg. In the series on souris [5], the “hypothermie uniquement à forte dose” value came out at 50 mg/kg. In the series with rat normotendu, the “pression artérielle du rat normotendu” value was “sans modifier” and the “rythme cardiaque du rat normotendu” value is given as “augmente significativement”. Further, in the series on souris [6], the “potentialise le sommeil barbiturique dès la dose de” value is listed as ≥ 12,5 mg.kg^-1. The “antagonise l'hypermotilité amphétaminique à partir de (dose)” value in the series on souris [7] is given as ≥ 12,5 mg.kg^-1. In addition, the “anti-inflammatoire sur le test à la carraghénine D.E.so” value in the series on rat was determined as 38 mg/kg. Also, the “test de la yohimbine” value in the series with souris [8] is “inactif”. In addition, the minimal effective dose in series [1] (po, P.O.) was 2 mg/kg. The fréquence cardiaque entry in [1] (administration P.O.) is on record as “n'est pas modifiée de manière significative”. Moreover, the action antihypertensive result in series [1] (administration répétée sur 5 jours, 1,5 mg.kg^-1 P.O.) is “confirment l'action antihypertensive”. In series [1] (administration unique, I.P.), the “diminue la pression artérielle du rat spontanément hypertendu (S.H.R.) D.E.so” value was 1,9 mg.kg^-1. Moreover, the “action antihypertensive D.E.50” value in series [1] (administration unique, P.O.) amounted to 2 mg/kg. Also, the “activité antihypertensive (dose)” value in series [1] (per os, rat SHR printed for MP 440 only) is 2 mg/kg. In the series with souris [9], the “test à l'oxotrémorine” value is recorded as “modifie de façon peu nette”. For the same compound, in the series on souris [10], the “activité analgésique "plaque chauffante" D.E.50” value was determined as 6 mg/kg. Further, the “incoordination motrice uniquement à forte dose” value with souris [11] was found to be 50 mg/kg. In addition, in the series on souris [12], the “activité analgésique au test à la P.B.Q.” value was “faible”.

The compound `CC(=NNC(=O)C(C)O)c1ccccc1Cl` (stereo not shown) [Exemple 3, (hydroxy-2 propanoyl)-1 (orthochlorophényl-1 éthylidène-1)-2 hydrazine] yielded a 50% lethal dose (LD50) in the series “Acute toxicity (DL 50)” (ip, I.P.) of 240 mg/kg. Also, the minimal effective dose in [1] (ip, I.P.) came to 12.5 mg/kg.

In turn, `CC(=NNC(=O)CO)c1ccccc1Cl` [Exemple 4, (hydroxy-2 acétyl)-1 (orthochlorophényl-1 éthylidène-1)-2 hydrazine] showed an LD50 in the series “Acute toxicity (DL 50)” (ip, I.P.) of 583 mg/kg. In series [1] (route not given), the minimal effective dose worked out at 3.13 mg/kg.

`COCC(=O)NN=C(C)c1ccccc1Cl` [Exemple 6, (méthoxy-2 acétyl)-1 (orthochlorophényl-1 éthylidène-1)-2 hydrazine]: the LD50 in “Acute toxicity (DL 50)” (ip, I.P.) is 200 mg/kg. The minimal effective dose in series [1] (ip, I.P.) came to 6.25 mg/kg.

As for `CC(=NNC(=O)CN)c1ccccc1Cl` [Exemple 7, (amino-2 acétyl)-1 (orthochlorophényl-1 éthylidène-1)-2 hydrazine], the LD50 in “Acute toxicity (DL 50)” (ip, I.P.) amounted to 143 mg/kg. Moreover, the minimal effective dose in series [1] (po, P.O.) was 2 mg/kg.

For `CSCC(=O)NN=C(C)c1ccccc1Cl` [Exemple 8, (méthylthio-2 acétyl)-1 (orthochlorophényl-1 éthylidène-1)-2 hydrazine], the LD50 in “Acute toxicity (DL 50)” (ip, I.P.) was above 400 mg/kg. Moreover, the minimal effective dose in series [1] (ip, I.P.) turned out to be 12.5 mg/kg.

In turn, `CC(=NNC(=O)C(N)=O)c1ccccc1Cl` [Exemple 9, oxamoyl-1 (orthochlorophényl-1 éthylidène-1)-2 hydrazine] showed an LD50 in the series “Acute toxicity (DL 50)” (ip, I.P.) above 400 mg/kg. In addition, the minimal effective dose in series [1] (ip, I.P.) stood at 12.5 mg/kg.

In turn, `CCC(=NNC(=O)C(C)(C)O)c1ccccc1Cl` [Exemple 16, (hydroxy-2 isobutyroyl)-1 (orthochlorophényl-1 propylidène-1)-2 hydrazine] yielded an LD50 in “Acute toxicity (DL 50)” (ip, I.P.) of 179 mg/kg. Also, in series [1] (ip, I.P.), the minimal effective dose came out at 6.25 mg/kg.

`CCCCC(=NNC(=O)C(C)(C)O)c1ccccc1Cl` [Exemple 26, (hydroxy-2 isobutyroyl)-1 (chloro-2 phényl-1 pentylidène-1)-2 hydrazine] displayed an LD50 in the series “Acute toxicity (DL 50)” (ip, I.P.) above 400 mg/kg. Moreover, the minimal effective dose in series [1] (ip, I.P.) is 6.25 mg/kg.
